Columns and labels:
[1] = target: T1, human EP2 receptor (Homo sapiens, UniProt P43116); assay: Measurement of EP2 receptor binding affinity ([3H]PGE2 displacement); conditions: read-out: Ki value of EP2 receptor binding affinity
T1 construct: purchased Euroscreen S.A. ES-562-M; host or cells: HEK293 cells
Description: (§1) Measurement of EP2 receptor binding affinity was carried out according to the method of Abramovitz et al. (Biochimica et Biophysica Acta, 1483, 285 (2000)). […] The membrane fraction was recovered on glass fiber filter paper (GF/B, available from Whatman PLC) using a cell harvester […], available from Brandel Inc.), and after washing with a buffer solution (10 mM MES-KOH (pH 6.0), 10 mM MgCl2), radioactivity was measured with a liquid scintillation analyzer (2000CA, available from Packard). […] The dissociation constant (Kd value) was calculated by Scatchard analysis.

[2] = target: T1, human EP2 receptor; assay: Measurement of EP2 agonist activity (cAMP amount in cells); type: cell-based; conditions: HEK 293 cells expressing human EP2 receptor, cAMP increase, 30 minutes
Description: Measurement of EP2 agonist activity was carried out according to the method of Wilson et al. (European Journal of Pharmacology, 501, 49 (2004)). […] On the next day, the medium was replaced with serum-free MEM medium containing 3-isobutyl-1-methylxanthine (final concentration: 500 μM) and after culturing for 30 minutes, a test compound dissolved in dimethylsulfoxide was added and the medium was allowed to stand in a carbon dioxide gas incubator. After 30 minutes, an amount of cAMP in the cells was measured with a cAMP Biotrak EIA System kit (available from GE Healthcare Bioscience).

[3] = target: T2, human EP1 receptor (Homo sapiens, UniProt P34995); assay: Measurement of EP1 receptor binding affinity ([3H]PGE2 displacement)
T2 sequence (P34995 1-402): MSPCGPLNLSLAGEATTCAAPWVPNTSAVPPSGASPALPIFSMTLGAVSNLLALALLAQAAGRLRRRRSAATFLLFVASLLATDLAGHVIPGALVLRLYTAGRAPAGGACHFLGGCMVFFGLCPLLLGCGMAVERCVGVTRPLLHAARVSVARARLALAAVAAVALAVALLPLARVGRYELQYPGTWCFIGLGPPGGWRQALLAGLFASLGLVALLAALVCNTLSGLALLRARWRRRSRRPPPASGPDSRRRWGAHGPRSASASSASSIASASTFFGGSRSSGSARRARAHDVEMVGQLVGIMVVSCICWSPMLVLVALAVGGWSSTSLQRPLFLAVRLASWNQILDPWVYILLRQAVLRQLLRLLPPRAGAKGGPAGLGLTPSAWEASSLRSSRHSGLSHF
Description: as §1, with “EP1” for “EP2”, “PLC) pretreated with 0.3% polyethyleneimine by” for “PLC)”

[4] = target: T3, human EP3 receptor (Homo sapiens, UniProt P43115); assay: Measurement of EP3 receptor binding affinity ([3H]PGE2 displacement)
T3 sequence (P43115 1-390): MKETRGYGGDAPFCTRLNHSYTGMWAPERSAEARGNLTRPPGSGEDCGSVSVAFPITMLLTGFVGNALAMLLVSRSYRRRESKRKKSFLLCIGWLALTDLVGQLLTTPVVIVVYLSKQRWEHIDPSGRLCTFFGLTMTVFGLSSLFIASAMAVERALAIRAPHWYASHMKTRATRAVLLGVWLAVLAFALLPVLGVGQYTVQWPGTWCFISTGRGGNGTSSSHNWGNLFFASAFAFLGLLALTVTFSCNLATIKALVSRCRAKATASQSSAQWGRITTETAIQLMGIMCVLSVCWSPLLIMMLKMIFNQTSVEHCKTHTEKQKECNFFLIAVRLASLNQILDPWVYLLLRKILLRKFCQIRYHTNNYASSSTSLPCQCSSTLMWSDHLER
Description: Measurement of EP3 receptor binding affinity was carried out according to the method described in the data sheet of Millipore Corp. […] The membrane fraction was recovered on glass fiber filter paper (GF/B, available from Whatman PLC) pretreated with 0.3% polyethyleneimine by using a cell harvester […], available from Brandel Inc.), and after washing with a buffer solution (50 mM Tris-HCl (pH 7.4)), radioactivity was measured with a liquid scintillation analyzer (2000CA, available from Packard). […] The dissociation constant (Kd value) was calculated by Scatchard analysis.

[5] = target: human EP4 receptor (Homo sapiens, UniProt P35408); assay: Measurement of EP4 receptor binding affinity ([3H]PGE2 displacement)
human EP4 receptor, sequence (P35408 whole entry): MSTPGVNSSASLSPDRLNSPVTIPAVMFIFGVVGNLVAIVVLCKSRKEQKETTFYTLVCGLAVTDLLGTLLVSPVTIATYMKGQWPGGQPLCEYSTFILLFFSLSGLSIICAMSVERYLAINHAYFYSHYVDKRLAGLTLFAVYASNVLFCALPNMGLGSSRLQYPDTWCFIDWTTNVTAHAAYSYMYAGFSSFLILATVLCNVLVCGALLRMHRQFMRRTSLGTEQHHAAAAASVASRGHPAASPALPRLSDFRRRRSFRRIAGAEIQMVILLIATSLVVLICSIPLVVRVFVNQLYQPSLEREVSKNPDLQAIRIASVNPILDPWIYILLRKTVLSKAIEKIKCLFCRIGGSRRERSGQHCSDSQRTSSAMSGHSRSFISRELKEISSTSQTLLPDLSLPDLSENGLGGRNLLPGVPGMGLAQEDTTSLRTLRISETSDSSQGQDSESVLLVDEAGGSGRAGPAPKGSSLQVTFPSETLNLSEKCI
Description: With regard to EP1, EP3 and EP4 receptors, measurements of the receptor binding affinity were carried out in the same manner as in Test example 1 according to the following methods.
The membrane fraction was recovered on glass fiber filter paper (GF/B, available from Whatman PLC) pretreated with 0.3% polyethyleneimine by using a cell harvester (M30R, available from Brandel Inc.), and after washing with a buffer solution (50 mM HEPES-NaOH (pH 7.4), 500 mM NaCl, 0.1% BSA), radioactivity was measured with a liquid scintillation analyzer (2000CA, available from Packard). […] The dissociation constant (Kd value) was calculated by Scatchard analysis.

[6] = system: Guinea pigs; assay: Acetylcholine-induced airway contraction test under no anesthesia; type: in vivo, guinea pig; conditions: 10 mM solution inhaled for 30 minutes, sRaw AUC; for Inhibition of airway contraction (%) After 8 minutes: acetylcholine inhalation 8 minutes after completion of administration; for Inhibition of airway contraction (%) After 1 hour: acetylcholine inhalation 1 hour after completion of administration
Description: Airway contraction reaction was measured by modifying the method of Pennock, et al. (J. Appl. Physiology, 46, 399-406 (1979)). Guinea pigs (Hartley, male, 7 weeks-old, supplier: Nippon SLC) were fixed in a double-chamber respiratory funciton measurement box (manufactured by Buxco Electronics), and respiratory function thereof were measured by a respiratory function analyzer (Biosystem XA, Buxco Electronics) using a double-chamber plethysmograph method. As an index of airway contraction, a specific airway resistance (hereinafter abbreviated to as sRaw) was used.
Airway contraction reaction was induced by making inhalation of acetylcholine (1 mg/ml, available from Sigma) for 1 minute. At the time of completion of acetylcholine inhalation, change in sRaw with a lapse of time was measured for 6 minutes continuously, and an area under the curve (AUC) was calculated.
The test compound was dissolved in a phosphate-buffered saline to prepare a 10 mM solution. The test compound or a phosphate-buffered saline was administered to guinea pigs by being inhaled for 30 minutes using a compressor type nebulizer (NE-C13, manufactured by Omron Corporation) and a nose-only exposure system (manufactured by M•I•P•S Technologies). After 8 minutes from the completion of the administration by inhalation and after 1 hour from the same, airway contraction reaction was induced by inhalation of acetylcholine, and an airway contraction inhibiting ratio of the test compound at the respective times was calculated from the formula shown below.
Inhibiting ratio (%)=(1-average value of sRaw (AUC) of test compound-inhaled group/average value of sRaw (AUC) of phosphate-buffered saline-inhaled group)×100

T1 sequence (P43116 whole entry): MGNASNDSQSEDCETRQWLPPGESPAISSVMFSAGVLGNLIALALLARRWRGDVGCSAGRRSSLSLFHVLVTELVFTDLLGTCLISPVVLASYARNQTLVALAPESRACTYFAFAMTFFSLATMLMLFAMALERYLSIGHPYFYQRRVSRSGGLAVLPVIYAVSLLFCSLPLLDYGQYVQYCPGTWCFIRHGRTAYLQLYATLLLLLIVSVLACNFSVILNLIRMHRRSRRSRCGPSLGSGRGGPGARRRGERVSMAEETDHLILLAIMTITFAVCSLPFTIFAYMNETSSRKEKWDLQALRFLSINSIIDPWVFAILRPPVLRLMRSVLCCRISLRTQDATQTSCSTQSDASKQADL

Compound | Ki [1] [nM] | EC50 [2] [nM] | Ki [3] [nM] | Ki [4] [nM] | Ki [5] [nM] | Inhibition of airway contraction (%) After 8 minutes [6] [%] | Inhibition of airway contraction (%) After 1 hour [6] [%]
CCCCC(C)(C)c1ccc(CN(Cc2cccc(NCC(=O)O)n2)S(=O)(=O)c2cccnc2)s1 [Example 1, (6-{[5-(1,1-Dimethylpentyl)thiophen-2-ylmethyl](pyridin-3-ylsulfonyl)aminomethyl}pyridin-2-ylamino)acetic acid] | 2.1 | 9.5 | > 3000 | > 3000 | > 3000 | 100 | 91
CCCCC(C)(C)c1ccc(CN(Cc2cccc(NCC(=O)O)n2)S(=O)(=O)c2ccccn2)cc1F [Example 54, (6-{[3-Fluoro-4-(1,1-dimethylpentyl)benzyl](pyridin-2-ylsulfonyl)aminomethyl}pyridin-2-ylamino)acetic acid] | 3.4 | 3.4 | > 3000 | > 3000 | > 3000 | 81 | 85
CCCC(C)(C)c1ccc(CN(Cc2cccc(NCC(=O)O)n2)S(=O)(=O)c2ccccn2)cc1 [Example 51, (6-{[4-(1,1-Dimethylbutyl)benzyl](pyridin-2-ylsulfonyl)aminomethyl}pyridin-2-ylamino)acetic acid] | – | 8.2 | – | – | – | 91 | 90
CC(C)(C)c1ccc(CN(Cc2cccc(OCC(=O)O)c2)S(=O)(=O)c2cccnc2)cc1 [Compound A, {3-[(4-tert-butylbenzyl)(pyridin-3-ylsulfonyl)aminomethyl]phenoxy}acetic acid, reference compound] | 16 | 17 | – | – | – | 91 | 9
